In ChEMBL document CHEMBL5729245, “Dioxinoquinoline compounds, preparation method and uses thereof” (2022):

Key:
[1] = molecular target: Hepatocyte growth factor receptor (Homo sapiens, UniProt P08581); experiment: Assay of Small Molecular Compounds for Inhibiting the Activity of c-MET Kinase: The assay is based on the LANCE TR-FRET technology of Perkin Elmer Inc., and the assay method is as follows:1. Dilution of compounds: a total of 11 concentrations were obtained using a 3-fold gradient dilution from the highest concentration of 2500 nM (the maximum final concentration of the drug used in this assay was 2500 nM, and the minimum final concentration was 0.042 nM).2. 2.5 μL of the gradient-diluted compounds were taken with a transfer pipette to a 384-well plate.3. Addition of enzyme: 5 μL of 2× c-MET kinase solution (concentration was 2 nM) was taken with a transfer pipette to the corresponding reaction well of the 384-well plate, mixed well and pre-reacted at room temperature for 5 minutes.4. 2.5 μL 4× Ultra ULight™-JAK-1 (Tyr1023) Peptide (concentration was 400 nM)/ATP (concentration was 40 μM) mixture was taken with a transfer pipette to the corresponding reaction well of the 384-well plate.5. Negative control: 2.5 μL/well 4× substrate/ATP mixture and 7.5 μL 1× Kinase Assay Buffer were added to the wells of the 384-well plate.6. Positive control: 2.5 μL/well 4× substrate/ATP mixture, 2.5 μL/well 1× Kinase Assay Buffer containing 16% DMSO, and 5 µL/well 2× c-MET kinase solution were added to the 384-well plate. The final concentration of DMSO in the reaction system was 4%.7. The mixture was mixed well and then centrifuged and reacted at room temperature in dark for 60 min.8. Termination of the enzymatic reaction: 5 μL of 4× stop solution was taken with a transfer pipette to the wells of the 384-well plate, mixed and then centrifuged, and reacted at room temperature for 5 min.9. Development of the reaction: 5 μL of 4× detection solution was taken with a transfer pipette to the wells of the 384-well plate for color development, and the mixture was mixed and then centrifuged and reacted at room temperature for 60 min.10. The 384-well plate was placed into the Envision plate reader and the signal was detected using the appropriate program.11. Analysis and processing of the raw data:12. The drug concentrations and the corresponding inhibition rates were input into GraphPad Prism5 for calculation, and the inhibition rate of the compounds were calculated as follows: inhibition rate (%)=(reading of positive well−reading of experimental well)/(reading of positive control well−reading of negative control well)×100%. Processing with GraphPad Prism5 software yielded the corresponding IC50 values (the concentration of the compound at which 50% of the highest inhibition of the enzyme is achieved).
[2] = molecular target: Vascular endothelial growth factor receptor 2 (Homo sapiens, UniProt P35968); experiment: Assay of Small Molecular Compounds for Inhibiting the Activity of VEGFR-2 Kinase: The assay is based on the LANCE TR-FRET technology of Perkin Elmer Inc., and the assay method is as follows:1. Dilution of compounds: a total of 11 concentrations were obtained using a 3-fold gradient dilution from the highest concentration of 2500 nM (the maximum final concentration of the drug used in this assay was 2500 nM, and the minimum final concentration was 0.042 nM).2. 2.5 μL of the gradient-diluted compounds were taken with a transfer pipette to a 384-well plate.3. Addition of enzyme: 5 μL of 2× VEGFR-2 kinase solution (concentration was 0.5 nM) was taken with a transfer pipette to the corresponding reaction well of the 384-well plate, mixed well and pre-reacted at room temperature for 30 minutes.4. 2.5 μL 4× Ultra ULight™-JAK-1 (Tyr1023) Peptide (concentration was 200 nM)/ATP (concentration was 40 μM) mixture was taken with a transfer pipette to the corresponding reaction well of the 384-well plate.5. Negative control: 2.5 μL/well 4× substrate/ATP mixture and 7.5 μL 1× Kinase Assay Buffer were added to the wells of the 384-well plate.6. Positive control: 2.5 μL/well 4× substrate/ATP mixture, 2.5 μL/well 1× Kinase Assay Buffer containing 16% DMSO, and 5 μL/well 2× VEGFR-2 kinase solution were added to the 384-well plate. The final concentration of DMSO in the reaction system was 4%.7. The mixture was mixed well and then centrifuged and reacted at room temperature in dark for 60 min.8. Termination of the enzymatic reaction: 5 μL of 4× stop solution was taken with a transfer pipette to the wells of the 384-well plate, mixed and then centrifuged, and reacted at room temperature for 5 min.9. Development of the reaction: 5 μL of 4× detection solution was taken with a transfer pipette to the wells of the 384-well plate for color development, and the mixture was mixed and then centrifuged and reacted at room temperature for 60 min.10. The 384-well plate was placed into the Envision plate reader and the signal was detected using the appropriate program.11. Analysis and processing of the raw data:The drug concentrations and the corresponding inhibition rates were input into GraphPad Prism5 for calculation, and the inhibition rate of the compounds were calculated as follows: inhibition rate (%)=(reading of positive well−reading of experimental well)/(reading of positive control well−reading of negative control well)×100%. Processing with GraphPad Prism5 software yielded the corresponding IC50 values (the concentration of the compound at which 50% of the highest inhibition of the enzyme is achieved).
Sequence of Vascular endothelial growth factor receptor 2 (P35968 whole entry): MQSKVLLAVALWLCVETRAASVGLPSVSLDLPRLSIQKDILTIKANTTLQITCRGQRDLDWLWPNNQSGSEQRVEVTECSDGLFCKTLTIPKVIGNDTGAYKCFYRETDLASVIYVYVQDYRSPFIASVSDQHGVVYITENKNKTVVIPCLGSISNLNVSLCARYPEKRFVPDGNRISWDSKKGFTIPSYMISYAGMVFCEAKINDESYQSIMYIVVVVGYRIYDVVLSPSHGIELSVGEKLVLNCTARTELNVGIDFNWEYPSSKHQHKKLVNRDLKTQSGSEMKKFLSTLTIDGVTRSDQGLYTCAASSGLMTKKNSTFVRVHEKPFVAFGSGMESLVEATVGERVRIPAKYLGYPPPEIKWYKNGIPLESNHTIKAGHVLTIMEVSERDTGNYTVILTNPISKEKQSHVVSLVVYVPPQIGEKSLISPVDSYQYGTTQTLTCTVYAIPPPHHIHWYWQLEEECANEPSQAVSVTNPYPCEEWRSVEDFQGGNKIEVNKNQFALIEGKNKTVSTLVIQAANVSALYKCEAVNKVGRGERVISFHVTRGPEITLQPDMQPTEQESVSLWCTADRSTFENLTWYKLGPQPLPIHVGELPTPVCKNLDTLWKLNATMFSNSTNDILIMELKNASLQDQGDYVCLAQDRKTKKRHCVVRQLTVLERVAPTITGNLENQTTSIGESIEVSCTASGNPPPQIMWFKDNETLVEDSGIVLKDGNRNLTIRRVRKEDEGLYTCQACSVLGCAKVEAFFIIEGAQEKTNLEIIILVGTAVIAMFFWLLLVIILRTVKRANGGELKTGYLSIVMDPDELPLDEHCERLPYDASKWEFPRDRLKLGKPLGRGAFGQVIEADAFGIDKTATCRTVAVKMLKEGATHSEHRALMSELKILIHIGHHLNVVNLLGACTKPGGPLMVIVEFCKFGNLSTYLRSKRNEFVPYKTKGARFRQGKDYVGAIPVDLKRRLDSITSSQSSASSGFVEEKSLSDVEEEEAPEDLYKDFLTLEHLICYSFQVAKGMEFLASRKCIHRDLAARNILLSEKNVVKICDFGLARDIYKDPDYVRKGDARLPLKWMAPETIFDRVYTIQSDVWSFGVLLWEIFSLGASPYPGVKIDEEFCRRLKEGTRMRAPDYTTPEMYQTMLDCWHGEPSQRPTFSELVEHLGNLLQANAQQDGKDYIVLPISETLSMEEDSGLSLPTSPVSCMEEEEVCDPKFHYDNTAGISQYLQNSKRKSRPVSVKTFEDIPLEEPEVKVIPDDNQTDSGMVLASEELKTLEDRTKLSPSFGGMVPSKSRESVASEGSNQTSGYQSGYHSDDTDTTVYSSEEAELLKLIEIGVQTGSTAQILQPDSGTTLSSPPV

Sequence of Hepatocyte growth factor receptor (P08581 whole entry): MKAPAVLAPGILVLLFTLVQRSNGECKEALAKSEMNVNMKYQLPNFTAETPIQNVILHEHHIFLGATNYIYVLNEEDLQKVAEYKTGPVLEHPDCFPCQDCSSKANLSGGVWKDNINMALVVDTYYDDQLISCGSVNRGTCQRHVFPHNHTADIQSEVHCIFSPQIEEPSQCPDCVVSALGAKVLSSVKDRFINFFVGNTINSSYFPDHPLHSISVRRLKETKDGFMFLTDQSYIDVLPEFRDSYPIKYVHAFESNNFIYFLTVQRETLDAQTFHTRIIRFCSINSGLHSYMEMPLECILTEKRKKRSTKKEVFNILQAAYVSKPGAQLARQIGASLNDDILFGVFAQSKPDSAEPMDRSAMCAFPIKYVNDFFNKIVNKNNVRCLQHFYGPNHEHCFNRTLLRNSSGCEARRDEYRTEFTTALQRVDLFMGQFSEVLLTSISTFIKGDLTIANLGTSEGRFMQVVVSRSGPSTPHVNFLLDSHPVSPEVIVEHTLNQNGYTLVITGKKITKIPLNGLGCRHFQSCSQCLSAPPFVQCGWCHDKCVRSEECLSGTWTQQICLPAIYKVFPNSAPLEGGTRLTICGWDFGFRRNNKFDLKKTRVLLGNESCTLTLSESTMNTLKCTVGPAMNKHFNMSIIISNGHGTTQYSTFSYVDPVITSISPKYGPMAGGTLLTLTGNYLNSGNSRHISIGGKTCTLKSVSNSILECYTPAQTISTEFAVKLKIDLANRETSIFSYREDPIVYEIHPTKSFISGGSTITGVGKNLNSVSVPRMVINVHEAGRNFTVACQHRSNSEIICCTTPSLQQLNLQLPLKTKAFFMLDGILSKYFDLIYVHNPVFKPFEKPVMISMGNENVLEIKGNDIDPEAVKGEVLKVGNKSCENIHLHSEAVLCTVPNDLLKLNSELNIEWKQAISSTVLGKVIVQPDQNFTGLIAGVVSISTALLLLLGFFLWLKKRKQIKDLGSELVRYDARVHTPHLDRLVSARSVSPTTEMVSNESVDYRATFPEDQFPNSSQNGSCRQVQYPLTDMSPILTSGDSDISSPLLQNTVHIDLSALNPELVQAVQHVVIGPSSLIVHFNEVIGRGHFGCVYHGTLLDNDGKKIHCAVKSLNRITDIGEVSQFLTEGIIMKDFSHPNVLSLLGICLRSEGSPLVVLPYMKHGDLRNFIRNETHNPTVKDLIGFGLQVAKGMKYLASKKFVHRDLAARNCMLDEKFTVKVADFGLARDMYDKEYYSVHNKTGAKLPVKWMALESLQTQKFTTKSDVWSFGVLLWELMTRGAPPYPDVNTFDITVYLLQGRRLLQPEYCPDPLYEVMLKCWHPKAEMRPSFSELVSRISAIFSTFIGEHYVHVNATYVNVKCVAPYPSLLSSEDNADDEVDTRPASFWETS

IC50 [1]	IC50 [2]	Compound
< 50 nM	< 50 nM	O=C(Nc1ccc(F)cc1)C1(C(=O)Nc2ccc(Oc3ccnc4cc(OCCCN5CCCCC5)c5c(c34)OCCO5)c(F)c2)CC1
< 50 nM	> 5000 nM	COc1cc2nccc(Oc3cc(Cl)c(NC(=O)C4(C(=O)Nc5ccc(F)cc5)CC4)cc3F)c2c2c1OCCO2
< 50 nM	< 50 nM	O=C(Nc1ccc(F)cc1)C1(C(=O)Nc2ccc(Oc3ccnc4cc(OCCCO)c5c(c34)OCCO5)c(F)c2)CC1
< 50 nM	< 50 nM	O=C(Nc1ccc(F)cc1)C1(C(=O)Nc2ccc(Oc3ccnc4cc(OCCCN5CCOCC5)c5c(c34)OCCO5)cc2)CC1
< 50 nM	< 50 nM	O=C(Nc1ccc(F)cc1)C1(C(=O)Nc2ccc(Oc3ccnc4cc(OCCO)c5c(c34)OCCO5)c(F)c2)CC1
< 50 nM	< 50 nM	O=C(Nc1ccc(F)cc1)C1(C(=O)Nc2ccc(Oc3ccnc4cc(OCCCN5CCOCC5)c5c(c34)OCCO5)c(F)c2)CC1
< 50 nM	< 50 nM	CC1(C)CCN(CCCOc2cc3nccc(Oc4ccc(NC(=O)C5(C(=O)Nc6ccc(F)cc6)CC5)cc4F)c3c3c2OCCO3)CC1
< 50 nM	< 50 nM	CN(CCCOc1cc2nccc(Oc3ccc(NC(=O)C4(C(=O)Nc5ccc(F)cc5)CC4)cc3F)c2c2c1OCCO2)C1CCC1
< 50 nM	< 50 nM	O=C(Nc1ccc(F)cc1)C1(C(=O)Nc2ccc(Oc3ccnc4cc(OCCCN5CCOCC5)c5c(c34)OCCO5)cc2F)CC1
< 50 nM	< 50 nM	COCCN(C)CCCOc1cc2nccc(Oc3ccc(NC(=O)C4(C(=O)Nc5ccc(F)cc5)CC4)cc3F)c2c2c1OCCO2
< 50 nM	< 50 nM	COc1cc2nccc(Oc3ccc(NC(=O)C4(C(=O)Nc5ccc(F)cc5)CC4)cc3F)c2c2c1OCCO2
< 50 nM	< 50 nM	COCCOc1cc2nccc(Oc3ccc(NC(=O)C4(C(=O)Nc5ccc(F)cc5)CC4)cc3F)c2c2c1OCCO2
< 50 nM	–	O=C(Nc1ccc(F)cc1)C1(C(=O)Nc2ccc(Oc3ccnc4cc(OC5CCOCC5)c5c(c34)OCCO5)c(F)c2)CC1
< 50 nM	< 50 nM	CC(C)(O)COc1cc2nccc(Oc3ccc(NC(=O)C4(C(=O)Nc5ccc(F)cc5)CC4)cc3F)c2c2c1OCCO2
< 50 nM	< 50 nM	CC1(N)CCN(CCCOc2cc3nccc(Oc4ccc(NC(=O)C5(C(=O)Nc6ccc(F)cc6)CC5)cc4F)c3c3c2OCCO3)CC1
< 50 nM	–	CC(C)Oc1cc2nccc(Oc3ccc(NC(=O)C4(C(=O)Nc5ccc(F)cc5)CC4)cc3F)c2c2c1OCCO2
< 50 nM	–	O=C(Nc1ccc(F)cc1)C1(C(=O)Nc2ccc(Oc3ccnc4cc(OCCCN5CCOCC5)c5c(c34)OCCO5)c(Cl)c2)CC1

IC50 [1]	IC50 [2]	Compound
< 50 nM	< 50 nM	O=C(Nc1ccc(F)cc1)C1(C(=O)Nc2ccc(Oc3ccnc4cc(OCCCN5CCS(=O)(=O)CC5)c5c(c34)OCCO5)c(F)c2)CC1
< 50 nM	< 50 nM	CN(C)CCCCCCOc1cc2nccc(Oc3ccc(NC(=O)C4(C(=O)Nc5ccc(F)cc5)CC4)cc3F)c2c2c1OCCO2
< 50 nM	–	O=C(Nc1ccc(F)cc1)C1(C(=O)Nc2ccc(Oc3ccnc4cc(OCCCN5CCOCC5)c5c(c34)OCCO5)cc2Cl)CC1
< 50 nM	< 50 nM	O=C(Nc1ccc(F)cc1)C1(C(=O)Nc2ccc(Oc3ccnc4cc(OC5COC5)c5c(c34)OCCO5)c(F)c2)CC1
< 50 nM	< 50 nM	COc1cc2nccc(Oc3ccc(NC(=O)C4(C(=O)Nc5ccc(F)cc5)CC4)cc3)c2c2c1OCCO2
< 50 nM	< 50 nM	O=C(Nc1ccc(F)cc1)C1(C(=O)Nc2ccc(Oc3ccnc4cc(OC5CCOC5)c5c(c34)OCCO5)c(F)c2)CC1 (stereo unspecified)
< 50 nM	< 50 nM	CN(C)CCCOc1cc2nccc(Oc3ccc(NC(=O)C4(C(=O)Nc5ccc(F)cc5)CC4)cc3F)c2c2c1OCCO2
< 50 nM	< 50 nM	COc1cc2nccc(Oc3ccc(NC(=O)C4(C(=O)Nc5ccc(F)cc5)CC4)c(F)c3)c2c2c1OCCO2
< 50 nM	< 50 nM	O=C(Nc1ccc(F)cc1)C1(C(=O)Nc2ccc(Oc3ccnc4cc(OCCCN5CCCC5)c5c(c34)OCCO5)c(F)c2)CC1
< 50 nM	< 50 nM	NC1(COc2cc3nccc(Oc4ccc(NC(=O)C5(C(=O)Nc6ccc(F)cc6)CC5)cc4F)c3c3c2OCCO3)CC1
< 50 nM	< 50 nM	CN1CCN(CCCOc2cc3nccc(Oc4ccc(NC(=O)C5(C(=O)Nc6ccc(F)cc6)CC5)cc4F)c3c3c2OCCO3)CC1
< 50 nM	< 50 nM	N#CCCCOc1cc2nccc(Oc3ccc(NC(=O)C4(C(=O)Nc5ccc(F)cc5)CC4)cc3F)c2c2c1OCCO2
< 50 nM	–	N#CCOc1cc2nccc(Oc3ccc(NC(=O)C4(C(=O)Nc5ccc(F)cc5)CC4)cc3F)c2c2c1OCCO2
< 50 nM	< 50 nM	CC1(O)CCN(CCCOc2cc3nccc(Oc4ccc(NC(=O)C5(C(=O)Nc6ccc(F)cc6)CC5)cc4F)c3c3c2OCCO3)CC1
< 50 nM	< 50 nM	COCCCOc1cc2nccc(Oc3ccc(NC(=O)C4(C(=O)Nc5ccc(F)cc5)CC4)cc3F)c2c2c1OCCO2
< 50 nM	< 50 nM	CCOc1cc2nccc(Oc3ccc(NC(=O)C4(C(=O)Nc5ccc(F)cc5)CC4)cc3F)c2c2c1OCCO2
